# Where a name gives a salt, the structure may show the parent alone.
# How the values were obtained:
# [1] = tested on: Male CD rats; assay: forced swimming test, acute administration; type: in vivo
# Description: A common method for evaluating antidepressant effect called as the forced swimming test (Porsolt et al., Nature. 266, 730-732, (1977)) was used as follows. Male CD rats (230-250 g) were used in the tests. Forty animals were divided into groups of 8 animals treated with 30 mg/kg imipramine, 125 mg/kg, 250 mg/kg and 500 mg/kg Apocynum extract and purified water. Test solutions were orally administered 24 h, 5 h and 1 h before testing. Rats were forced to swim for 15 min in a Plexiglas cylinder (40×18 cm i.d.) containing water at 25° C. at a level of 17 cm so that they preliminarily learned that they could not escape from the cylinder. […] All the tests were performed between 1-3 p.m. The images in the tapes were evaluated by a person who was not aware of the treatment of each group.
# (§1) Test solutions were prepared by dissolving or suspending Apocynum extract prepared in Example 2 in purified water or dissolving imipramine-HCl (imipramine is a known tricyclic antidepressant) in purified water, and administered at a dose of 10 ml/kg body weight. The results from 8 experimental animals in each group were expressed in mean ”SEM. Statistic significance as compared with control group was determined by ANOVA and multiple comparison tests were made by Fisher-PLSD (p<0.05:*).
# [2] = tested on: Male CD rats; assay: forced swimming test, repeated administration; type: in vivo
# Description: A common method for evaluating antidepressant effect called as the forced swimming test (Porsolt et al., Nature. 266, 730-732, (1977)) was used in the same manner as in Example 3. Male CD rats (230-250 g) were used in the tests. Forty animals were divided into groups of 8 animals treated with 20 mg/kg imipramine, 30 mg/kg, 60 mg/kg and 125 mg/kg Apocynum extract and purified water. Test solutions were orally administered between 3-4 p.m. daily. Rats were forced to swim for 15 min in a Plexiglas cylinder (40×18 cm i.d.) containing water at 25° C. at a level of 17 cm so that they preliminarily learned that they could not escape from the cylinder. […] All the tests were performed between 1-3 p.m. The images in the tapes were evaluated by a person who was not aware of the treatment of each group.
# as §1, with “mean±SEM.” for “mean ”SEM.”
smiles,measurement,setting,value
"CN(C)CCCN1c2ccccc2CCc2ccccc21 [Imipramine, imipramine-HCl]",Inactive period (seconds),"[1]; 30 mg/kg orally 24 h, 5 h and 1 h before testing, 5 min swim, mean±SEM, n=8, control 209 ± 20, * p<0.05",137 ± 18* seconds
same,inactive period as compared with control group,"[1]; 30 mg/kg, acute oral administration, ANOVA, Fisher-PLSD p<0.05",significantly shortened
same,Inactive period (seconds),"[2]; 20 mg/kg orally daily, repeated, 5 min swim 1 h after final administration, mean±SEM, n=8, control 161.54 ± 16.5, * p<0.05",97.91 ± 9.6* seconds
same,inactive period as compared with control group,"[2]; 20 mg/kg, repeated oral administration, ANOVA, Fisher-PLSD p<0.05",significantly shortened

# From patent US6737085B2, “Apocynum venetum extract for use as antidepressant” (Tokiwa Phytochemical Co., Ltd., priority 2000, dated 2004)
